According to PubChem BioAssay (NCI):
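Five concentrations, 48 hours, 96-well plates. GI50: concentration for 50% inhibition of growth. Definition used: TGI = concentration required for complete inhibition of growth.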

Assays:
Assay in all cases: DTP human tumour cell line panel, 48 h
786-0 renal = system: 786-0 renal
A498 renal = system: A498 renal
A549 NSCLC = system: A549 NSCLC
ACHN renal = system: ACHN renal
BT-549 breast = system: BT-549 breast
CAKI-1 renal = system: CAKI-1 renal
CCRF-CEM leukemia = system: CCRF-CEM leukemia
COLO 205 colon = system: COLO 205 colon
DU-145 prostate = system: DU-145 prostate
EKVX NSCLC = system: EKVX NSCLC
HCC-2998 colon = system: HCC-2998 colon
HCT-116 colon = system: HCT-116 colon
HCT-15 colon = system: HCT-15 colon
HL-60(TB) leukemia = system: HL-60(TB) leukemia
HOP-62 NSCLC = system: HOP-62 NSCLC
HOP-92 NSCLC = system: HOP-92 NSCLC
HS 578T breast = system: HS 578T breast
HT29 colon = system: HT29 colon
IGROV1 ovarian = system: IGROV1 ovarian
K-562 leukemia = system: K-562 leukemia
KM12 colon = system: KM12 colon
LOX IMVI melanoma = system: LOX IMVI melanoma
M14 melanoma = system: M14 melanoma
MALME-3M melanoma = system: MALME-3M melanoma
MCF7 breast = system: MCF7 breast
MDA-MB-231 breast = system: MDA-MB-231 breast
MDA-MB-435 = system: MDA-MB-435
MOLT-4 leukemia = system: MOLT-4 leukemia
NCI-H226 lung = system: NCI-H226 lung
NCI-H23 lung = system: NCI-H23 lung
NCI-H460 lung = system: NCI-H460 lung
NCI-H522 lung = system: NCI-H522 lung
NCI/ADR-RES ovarian = system: NCI/ADR-RES ovarian
OVCAR-3 ovarian = system: OVCAR-3 ovarian
OVCAR-4 ovarian = system: OVCAR-4 ovarian
OVCAR-5 ovarian = system: OVCAR-5 ovarian
OVCAR-8 ovarian = system: OVCAR-8 ovarian
PC-3 prostate = system: PC-3 prostate
RPMI-8226 leukemia = system: RPMI-8226 leukemia
RXF 393 renal = system: RXF 393 renal
SF-268 CNS = system: SF-268 CNS
SF-295 CNS = system: SF-295 CNS
SF-539 CNS = system: SF-539 CNS
SK-MEL-2 melanoma = system: SK-MEL-2 melanoma
SK-MEL-28 melanoma = system: SK-MEL-28 melanoma
SK-MEL-5 melanoma = system: SK-MEL-5 melanoma
SK-OV-3 ovarian = system: SK-OV-3 ovarian
SN12C renal = system: SN12C renal
SNB-19 CNS = system: SNB-19 CNS
SNB-75 CNS = system: SNB-75 CNS
SR leukemia = system: SR leukemia
SW-620 colon = system: SW-620 colon
T-47D breast = system: T-47D breast
TK-10 renal = system: TK-10 renal
U251 CNS = system: U251 CNS
UACC-257 melanoma = system: UACC-257 melanoma
UACC-62 melanoma = system: UACC-62 melanoma
UO-31 renal = system: UO-31 renal

COc1cc2c3c(cc4c5c(ccc4c3c1OC)OCO5)N(CCN(C)C)C2=O
GI50 (786-0 renal): 35 nM
TGI (786-0 renal): 654 nM
GI50 (A498 renal): 77.6 nM
TGI (A498 renal): 299 nM
GI50 (A549 NSCLC): 13.3 nM
TGI (A549 NSCLC): 385 nM
GI50 (ACHN renal): 21.5 nM
TGI (ACHN renal): 81.2 nM
GI50 (BT-549 breast): 234 nM
TGI (BT-549 breast): 1530 nM
GI50 (CAKI-1 renal): 39.3 nM
TGI (CAKI-1 renal): 261 nM
GI50 (CCRF-CEM leukemia): 28.1 nM
TGI (CCRF-CEM leukemia): 9640 nM
GI50 (COLO 205 colon): 116 nM
TGI (COLO 205 colon): 935 nM
GI50 (DU-145 prostate): 35.4 nM
TGI (DU-145 prostate): 490 nM
GI50 (EKVX NSCLC): 104 nM
TGI (EKVX NSCLC): 669 nM
GI50 (HCC-2998 colon): 85.8 nM
TGI (HCC-2998 colon): 295 nM
GI50 (HCT-116 colon): 42.9 nM
TGI (HCT-116 colon): 422 nM
GI50 (HCT-15 colon): 34 nM
TGI (HCT-15 colon): 605 nM
GI50 (HL-60(TB) leukemia): 22.6 nM
TGI (HL-60(TB) leukemia): 118 nM
GI50 (HOP-62 NSCLC): 35.9 nM
TGI (HOP-62 NSCLC): 1620 nM
GI50 (HOP-92 NSCLC): 60.9 nM
TGI (HOP-92 NSCLC): 561 nM
GI50 (HS 578T breast): 190 nM
TGI (HS 578T breast): 1280 nM
GI50 (HT29 colon): 87.1 nM
TGI (HT29 colon): 1260 nM
GI50 (IGROV1 ovarian): 47.2 nM
TGI (IGROV1 ovarian): 501 nM
GI50 (K-562 leukemia): 50 nM
GI50 (KM12 colon): 196 nM
TGI (KM12 colon): 11700 nM
TGI (LOX IMVI melanoma): 49.6 nM
GI50 (M14 melanoma): 46.6 nM
TGI (M14 melanoma): 400 nM
GI50 (MALME-3M melanoma): 64.2 nM
TGI (MALME-3M melanoma): 258 nM
GI50 (MCF7 breast): 32.2 nM
TGI (MCF7 breast): 579 nM
GI50 (MDA-MB-231 breast): 249 nM
TGI (MDA-MB-231 breast): 1610 nM
GI50 (MDA-MB-435): 170 nM
TGI (MDA-MB-435): 615 nM
GI50 (MOLT-4 leukemia): 23.6 nM
TGI (MOLT-4 leukemia): 1410 nM
GI50 (NCI-H226 lung): 69.6 nM
TGI (NCI-H226 lung): 344 nM
GI50 (NCI-H23 lung): 53.8 nM
TGI (NCI-H23 lung): 339 nM
GI50 (NCI-H460 lung): 17.6 nM
TGI (NCI-H460 lung): 147 nM
GI50 (NCI-H522 lung): 101 nM
TGI (NCI-H522 lung): 599 nM
GI50 (NCI/ADR-RES ovarian): 68.5 nM
TGI (NCI/ADR-RES ovarian): 675 nM
GI50 (OVCAR-3 ovarian): 199 nM
TGI (OVCAR-3 ovarian): 1140 nM
GI50 (OVCAR-4 ovarian): 309 nM
TGI (OVCAR-4 ovarian): 7840 nM
GI50 (OVCAR-5 ovarian): 133 nM
TGI (OVCAR-5 ovarian): 907 nM
GI50 (OVCAR-8 ovarian): 59.6 nM
TGI (OVCAR-8 ovarian): 5980 nM
GI50 (PC-3 prostate): 157 nM
TGI (PC-3 prostate): 4440 nM
GI50 (RPMI-8226 leukemia): 43.7 nM
TGI (RPMI-8226 leukemia): 517 nM
GI50 (RXF 393 renal): 89.4 nM
TGI (RXF 393 renal): 264 nM
GI50 (SF-268 CNS): 104 nM
TGI (SF-268 CNS): 1040 nM
GI50 (SF-295 CNS): 33.5 nM
TGI (SF-295 CNS): 229 nM
GI50 (SF-539 CNS): 110 nM
TGI (SF-539 CNS): 411 nM
GI50 (SK-MEL-2 melanoma): 313 nM
TGI (SK-MEL-2 melanoma): 804 nM
GI50 (SK-MEL-28 melanoma): 182 nM
TGI (SK-MEL-28 melanoma): 676 nM
GI50 (SK-MEL-5 melanoma): 92.4 nM
TGI (SK-MEL-5 melanoma): 225 nM
GI50 (SK-OV-3 ovarian): 74.6 nM
TGI (SK-OV-3 ovarian): 600 nM
GI50 (SN12C renal): 31.8 nM
TGI (SN12C renal): 378 nM
GI50 (SNB-19 CNS): 38.9 nM
TGI (SNB-19 CNS): 2610 nM
GI50 (SNB-75 CNS): 71.1 nM
TGI (SNB-75 CNS): 583 nM
GI50 (SR leukemia): 22.5 nM
GI50 (SW-620 colon): 36.3 nM
TGI (SW-620 colon): 1330 nM
GI50 (T-47D breast): 64.9 nM
TGI (T-47D breast): 3050 nM
GI50 (TK-10 renal): 170 nM
TGI (TK-10 renal): 702 nM
GI50 (U251 CNS): 38.9 nM
TGI (U251 CNS): 1430 nM
GI50 (UACC-257 melanoma): 166 nM
TGI (UACC-257 melanoma): 596 nM
GI50 (UACC-62 melanoma): 56.7 nM
TGI (UACC-62 melanoma): 229 nM
GI50 (UO-31 renal): 34.3 nM
TGI (UO-31 renal): 201 nM
